These are literature values, as cited in patent US20120309684A1, “CONJUGATES FOR DELIVERY OF BIOLOGICALLY ACTIVE COMPOUNDS” (ISIS INNOVATION LIMITED, priority 2009, published 2012).

Series [1] deals with cardiac compared with skeletal muscle.
Another series has as its system dystrophin protein. The conditions noted are these: seven weekly doses at 100 mg/kg, systemic intravenous.

As for “ASSLNIA (Sequence for inclusion in target-delivery peptide) [MSP]”, the “lower binding affinity for cardiac compared with skeletal muscle” value in series [1] is given as 2-3 fold.

With “GGCCAAACCTCGGCTTACCTGAAAT (all phosphorodiamidate morpholino (PMO); Tested constructs carry cell-penetrating peptides (B, MSP) conjugated to PMO)”, the “restoration of dystrophin protein with naked PMO” value in the series with dystrophin protein is given as “moderate restoration”.
